Assay results published in ChEMBL document CHEMBL1201862, “PubChem BioAssay data set” (2004).
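Protocol summary: plate cells (96-well), add compound at 5 concentrations, incubate 48 h, interpolate endpoints linearly. GI50: concentration for 50% inhibition of growth.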 Active and inactive are the calls of the source. No stated cut-off is given here; in the data, active = GI50 up to about 1.1 µM and inactive = higher.

Tests used:
Assay in all cases: inhibition of tumour cell growth, NCI panel, 48 h
NCI/ADR-RES = test system: NCI/ADR-RES
OVCAR-8 = test system: OVCAR-8
PC-3 = test system: PC-3
SNB-19 = test system: SNB-19
HL-60 = test system: HL-60
NCI-H460 = test system: NCI-H460
KM12 = test system: KM12
OVCAR-3 = test system: OVCAR-3
HOP-92 = test system: HOP-92
SK-MEL-28 = test system: SK-MEL-28
MDA-MB-231 = test system: MDA-MB-231
HCT-15 = test system: HCT-15
U-251 = test system: U-251
HT-29 = test system: HT-29
OVCAR-5 = test system: OVCAR-5
UACC-62 = test system: UACC-62
CCRF-CEM = test system: CCRF-CEM
NCI-H522 = test system: NCI-H522
COLO 205 = test system: COLO 205
BT-549 = test system: BT-549
MDA-N = test system: MDA-N
A549 = test system: A549
OVCAR-4 = test system: OVCAR-4
HCT-116 = test system: HCT-116
NCI-H23 = test system: NCI-H23
SK-MEL-5 = test system: SK-MEL-5
MCF7 = test system: MCF7
DU-145 = test system: DU-145
K562 = test system: K562
M14 = test system: M14
SF-268 = test system: SF-268
SK-OV-3 = test system: SK-OV-3
T47D = test system: T47D
MOLT-4 = test system: MOLT-4
SF-295 = test system: SF-295
SN12C = test system: SN12C
UACC-257 = test system: UACC-257
HOP-62 = test system: HOP-62
786-0 = test system: 786-0
LOX IMVI = test system: LOX IMVI
MDA-MB-435 = test system: MDA-MB-435
SR = test system: SR
UO-31 = test system: UO-31
IGROV-1 = test system: IGROV-1
SF-539 = test system: SF-539
HCC 2998 = test system: HCC 2998
SNB-75 = test system: SNB-75
SW-620 = test system: SW-620
NCI-H226 = test system: NCI-H226
ACHN = test system: ACHN
EKVX = test system: EKVX
Malme-3M = test system: Malme-3M
RPMI-8226 = test system: RPMI-8226
RXF 393 = test system: RXF 393
CAKI-1 = test system: CAKI-1
TK-10 = test system: TK-10

SMILES: CCSCCCN(CCCSCC)CCCSCC
- GI50 (NCI/ADR-RES): > 100 µM (inactive)
- GI50 (OVCAR-8): > 100 µM (inactive)
- GI50 (PC-3): > 100 µM (inactive)
- GI50 (SNB-19): > 100 µM (inactive)
- GI50 (HL-60): 80.9 µM (inactive)
- GI50 (NCI-H460): > 100 µM (inactive)
- GI50 (KM12): > 100 µM (inactive)
- GI50 (OVCAR-3): > 100 µM (inactive)
- GI50 (HOP-92): 5.16 µM (inactive)
- GI50 (SK-MEL-28): > 100 µM (inactive)
- GI50 (MDA-MB-231): > 100 µM (inactive)
- GI50 (HCT-15): > 100 µM
- GI50 (U-251): > 100 µM (inactive)
- GI50 (HT-29): > 100 µM (inactive)
- GI50 (OVCAR-5): > 100 µM (inactive)
- GI50 (UACC-62): > 100 µM (inactive)
- GI50 (CCRF-CEM): > 100 µM (inactive)
- GI50 (NCI-H522): 45.8 µM (inactive)
- GI50 (COLO 205): > 100 µM (inactive)
- GI50 (BT-549): > 100 µM (inactive)
- GI50 (MDA-N): > 100 µM (inactive)
- GI50 (A549): > 100 µM (inactive)
- GI50 (OVCAR-4): > 100 µM (inactive)
- GI50 (HCT-116): > 100 µM (inactive)
- GI50 (NCI-H23): > 100 µM (inactive)
- GI50 (SK-MEL-5): > 100 µM (inactive)
- GI50 (MCF7): > 100 µM (inactive)
- GI50 (DU-145): > 100 µM (inactive)
- GI50 (K562): > 100 µM (inactive)
- GI50 (M14): > 100 µM (inactive)
- GI50 (SF-268): > 100 µM (inactive)
- GI50 (SK-OV-3): > 100 µM (inactive)
- GI50 (T47D): > 100 µM (inactive)
- GI50 (MOLT-4): > 100 µM (inactive)
- GI50 (SF-295): > 100 µM (inactive)
- GI50 (SN12C): > 100 µM (inactive)
- GI50 (UACC-257): > 100 µM (inactive)
- GI50 (HOP-62): > 100 µM (inactive)
- GI50 (786-0): > 100 µM (inactive)
- GI50 (LOX IMVI): > 100 µM (inactive)
- GI50 (MDA-MB-435): > 100 µM (inactive)
- GI50 (SR): > 100 µM (inactive)
- GI50 (UO-31): > 100 µM (inactive)
- GI50 (IGROV-1): 88.3 µM (inactive)
- GI50 (SF-539): > 100 µM (inactive)
- GI50 (HCC 2998): > 100 µM (inactive)
- GI50 (SNB-75): > 100 µM (inactive)
- GI50 (SW-620): > 100 µM (inactive)

SMILES: COC(=N)CCCl
- GI50 (NCI-H226): > 100 µM (inactive)
- GI50 (NCI/ADR-RES): > 100 µM (inactive)
- GI50 (OVCAR-8): > 100 µM (inactive)
- GI50 (PC-3): > 100 µM (inactive)
- GI50 (ACHN): > 100 µM (inactive)
- GI50 (SNB-19): > 100 µM (inactive)
- GI50 (HL-60): > 100 µM (inactive)
- GI50 (NCI-H460): > 100 µM (inactive)
- GI50 (KM12): > 100 µM (inactive)
- GI50 (EKVX): > 100 µM (inactive)
- GI50 (Malme-3M): > 100 µM (inactive)
- GI50 (OVCAR-3): > 100 µM (inactive)
- GI50 (HOP-92): > 100 µM (inactive)
- GI50 (SK-MEL-28): > 100 µM (inactive)
- GI50 (HCT-15): > 100 µM
- GI50 (U-251): > 100 µM (inactive)
- GI50 (HT-29): > 100 µM (inactive)
- GI50 (OVCAR-5): > 100 µM (inactive)
- GI50 (UACC-62): > 100 µM (inactive)
- GI50 (CCRF-CEM): > 100 µM (inactive)
- GI50 (NCI-H522): 99.1 µM (inactive)
- GI50 (COLO 205): > 100 µM (inactive)
- GI50 (BT-549): > 100 µM (inactive)
- GI50 (MDA-N): > 100 µM (inactive)
- GI50 (A549): > 100 µM (inactive)
- GI50 (RPMI-8226): > 100 µM (inactive)
- GI50 (OVCAR-4): > 100 µM (inactive)
- GI50 (RXF 393): > 100 µM (inactive)
- GI50 (HCT-116): > 100 µM (inactive)
- GI50 (NCI-H23): > 100 µM (inactive)
- GI50 (SK-MEL-5): > 100 µM (inactive)
- GI50 (MCF7): > 100 µM (inactive)
- GI50 (DU-145): > 100 µM (inactive)
- GI50 (K562): > 100 µM (inactive)
- GI50 (M14): > 100 µM (inactive)
- GI50 (SF-268): > 100 µM (inactive)
- GI50 (SK-OV-3): > 100 µM (inactive)
- GI50 (MOLT-4): > 100 µM (inactive)
- GI50 (SF-295): > 100 µM (inactive)
- GI50 (SN12C): > 100 µM (inactive)
- GI50 (UACC-257): > 100 µM (inactive)
- GI50 (HOP-62): > 100 µM (inactive)
- GI50 (CAKI-1): > 100 µM (inactive)
- GI50 (TK-10): > 100 µM (inactive)
- GI50 (786-0): > 100 µM (inactive)
- GI50 (SR): > 100 µM (inactive)
- GI50 (UO-31): > 100 µM (inactive)
- GI50 (IGROV-1): > 100 µM (inactive)
- GI50 (SF-539): > 100 µM (inactive)
- GI50 (HCC 2998): > 100 µM (inactive)
- GI50 (SNB-75): 83.2 µM (inactive)
- GI50 (SW-620): > 100 µM (inactive)
